Source: PubChem BioAssay (NCI)
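Interpolation was linear, between the two tested concentrations surrounding the appropriate level; five concentrations were tested over 48 hours in 96-well plates. Abbreviation: GI50, concentration required for 50% inhibition of growth. TGI marks complete inhibition of growth.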

Tested on: MDA-MB-468 breast
Experiment: inhibition of tumour cell growth, NCI panel, 48 h

| SMILES | GI50 | TGI |
| --- | --- | --- |
| CC(=O)O[C@H]1C[C@@H]2OC3C=C(C)CCC3(C)[C@@]1(C)[C@@]21CO1 (some centres not stated) | 0.284 µM | 1.57 µM |
| COc1ccc(-c2c3c(nc4n[nH]c(-c5ccc(Cl)cc5)c24)-c2ccccc2C(=O)C3=O)cc1 | 1.65 µM | 3.47 µM |
| CC(C)(C)OC(=O)NCc1cccc(N=C=S)c1 | 14.8 µM | 48.1 µM |
| O=[N+]([O-])c1cc([N+](=O)[O-])c(Cl)cc1Cl | 1.66 µM | 3.38 µM |
| COc1ccc(CCN2CCC(CN(C)Cc3cnn(-c4ccccc4)c3)CC2)cc1 | 4.99 µM | 21.3 µM |
| CCCCCCCCCCCCCC[n+]1ccc(C)cc1 | 0.207 µM | 0.808 µM |
| Cc1nc2cc(Nc3nc(Nc4ccc(F)cc4)nc(N4CCOCC4)n3)ccc2n1Cc1ccccc1 | 1.52 µM | 4.28 µM |
| Cc1cc(O)c(C2=NN(c3ccc(S(N)(=O)=O)cc3)C(/C=C/c3ccccc3)C2)cc1Cl (configuration not stated) | 3.94 µM | 13.8 µM |
| COc1ccc(C(=O)c2sc3nc(-c4cccs4)ccc3c2N)cc1OC | 1.87 µM | > 100 µM |
| O=C1c2cccnc2C(=O)c2c1c(C(=O)OCCCN1CCCCC1)c1ccccn21 | 0.314 µM | 14.5 µM |
| COC(=O)C(C(=O)OC)C(Br)C(Br)C(Br)c1ccccc1 (configuration not stated) | 2.06 µM | 6.18 µM |
| CN(CCC(=O)/C(=C\c1ccccc1)c1ccc(Cl)cc1)Cc1ccccc1 | 2.14 µM | 5.96 µM |
| CC(=O)/C=C/c1ccc(OCc2ccc(Cl)cc2)cc1 | 161 µM | 872 µM |
| NC(=O)c1sc(-n2cnc3cc(C(F)(F)F)ccc32)cc1OCc1ccccc1Br | > 11.5 µM | > 23.4 µM |
| O=C(N/N=C/c1cccs1)c1[nH]c2ccc(Br)cc2c1-c1ccccc1 | 0.0881 µM | 4.26 µM |
| Cc1cccc2c3c(sc12)C(c1ccc(F)cc1)C(C#N)=C(N)O3 (configuration not stated) | 0.0315 µM | 0.551 µM |
| COc1cc(Cl)cc(-c2nn(-c3cccc(NC(=O)Nc4ccc(Cl)c(Cl)c4)c3)cc2-c2ccncc2)c1 | 1.74 µM | 7.37 µM |
| CCCCCCNCc1cc(C(C)(C)C)cc(CNCCCCCC)c1O | 1.59 µM | 3.01 µM |
| COCCOCCOCc1n(Cc2ccc3ccccc3n2)c2ccccc2[n+]1Cc1ccc2ccccc2n1 | 0.19 µM | 2.25 µM |
| COc1cnc2c(c1)C(=O)c1c-2n(CCCN2CCC(O)CC2)c(=O)c2cc(Cl)ccc12 | 0.521 µM | 10.8 µM |
| O=C1N(Cc2ccccc2Cl)c2ccccc2C12NN=C(c1cccc(Cl)c1)S2 (configuration not stated) | 1.91 µM | 3.77 µM |
| NC1(Cc2ccc(Cl)cc2)CCN(c2ncnc3[nH]ccc23)CC1 | 1.92 µM | 12.8 µM |
| COc1cc2c(c(OC)c1OC)-c1ccc(N=NC(N)=S)c(=O)cc1[C@@H](NC(C)=O)CC2 | 0.301 µM | – |
| Cn1cc(C2=C(Nc3ccccc3)C(=O)NC2=O)c2ccccc21 | > 23 µM | > 25 µM |
| Cc1ccc(C2NC(=O)c3ccccc3N2)c(C)c1 (configuration not stated) | 6.4 µM | > 100 µM |
| COc1cc(C)c2sc3ccccc3c(=O)c2c1NCCN(C)C | 2.15 µM | 5.06 µM |
| Cc1nc2ccccc2nc1N=Nc1ccccc1 | 21 µM | > 100 µM |
| Cc1nc2sc(C(=O)c3ccc(Cl)cc3)c(N)c2c(-c2ccccc2Cl)c1C(=O)Nc1ccccc1 | 17.5 µM | 37 µM |
| CC(C)C(=O)Nc1ccc(-c2nc(-c3cccc(O)c3)c(-c3ccnc(Br)c3)[nH]2)cc1 | 0.795 µM | 2.74 µM |
